Assay: Sensory evaluation of Vermont drink containing the agent
Details: ten panels
In short: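 Tridecadienal or tridecatrienal isomers added at various concentrations to a Vermont-flavoured drink (apple-cider vinegar, honey, liquid sugar, citric acid, trisodium citrate, 100 mL total). Ten panelists assessed acid taste/acid smell and aldehyde-type off-odour, and the concentration giving the best acid taste/smell quality was selected.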

CCCCC/C=C\C/C=C\CCC=O [(Z,Z)-4,7-tridecadienal]
6: A: number of panels, acid taste/acid smell extreme and cause irritation (0.1 ppt) | N: number of panels, irritation of acid reduced to give a mild acid taste (1 ppt) | N: number of panels, irritation of acid reduced to give a mild acid taste (20 ppt)
10: A: number of panels, acid taste/acid smell extreme and cause irritation (0.005 ppt)
2: B: number of panels, acid taste/acid smell slightly strong and slightly cause irritation (0.1 ppt) | C: number of panels, acid taste/acid smell slightly unpleasant (0.1 ppt) | C: number of panels, acid taste/acid smell slightly unpleasant (0.2 ppt) | Flavor judgment: number of panels who judged acid taste/acid smell quality the highest (1 ppt) | C: number of panels, acid taste/acid smell slightly unpleasant (5 ppt) | C: number of panels, acid taste/acid smell slightly unpleasant (10 ppb) | N: number of panels, irritation of acid reduced to give a mild acid taste (10 ppb) | N: number of panels, irritation of acid reduced to give a mild acid taste (50 ppb) | X: number of panels, acid taste reduced but piercing odor characteristic to aldehydes unpleasant (100 ppt) | B: number of panels, acid taste/acid smell slightly strong and slightly cause irritation (500 ppt) | C: number of panels, acid taste/acid smell slightly unpleasant (500 ppt) | X: number of panels, acid taste reduced but piercing odor characteristic to aldehydes unpleasant (500 ppt)
7: N: number of panels, irritation of acid reduced to give a mild acid taste (5 ppt) | X: number of panels, acid taste reduced but piercing odor characteristic to aldehydes unpleasant (50 ppb)
4: X: number of panels, acid taste reduced but piercing odor characteristic to aldehydes unpleasant (1 ppb) | Flavor judgment: number of panels who judged acid taste/acid smell quality the highest (5 ppt) | N: number of panels, irritation of acid reduced to give a mild acid taste (100 ppt) | N: number of panels, irritation of acid reduced to give a mild acid taste (500 ppt)
3: B: number of panels, acid taste/acid smell slightly strong and slightly cause irritation (0.2 ppt) | C: number of panels, acid taste/acid smell slightly unpleasant (0.5 ppt) | C: number of panels, acid taste/acid smell slightly unpleasant (1 ppb) | N: number of panels, irritation of acid reduced to give a mild acid taste (1 ppb) | C: number of panels, acid taste/acid smell slightly unpleasant (1 ppt) | C: number of panels, acid taste/acid smell slightly unpleasant (20 ppt) | Flavor judgment: number of panels who judged acid taste/acid smell quality the highest (20 ppt) | C: number of panels, acid taste/acid smell slightly unpleasant (100 ppt)
0: B: number of panels, acid taste/acid smell slightly strong and slightly cause irritation (0.005 ppt) | C: number of panels, acid taste/acid smell slightly unpleasant (0.005 ppt) | Flavor judgment: number of panels who judged acid taste/acid smell quality the highest (0.005 ppt) | N: number of panels, irritation of acid reduced to give a mild acid taste (0.005 ppt) | X: number of panels, acid taste reduced but piercing odor characteristic to aldehydes unpleasant (0.005 ppt) | Flavor judgment: number of panels who judged acid taste/acid smell quality the highest (0.02 ppt) | N: number of panels, irritation of acid reduced to give a mild acid taste (0.02 ppt) | X: number of panels, acid taste reduced but piercing odor characteristic to aldehydes unpleasant (0.02 ppt) | Flavor judgment: number of panels who judged acid taste/acid smell quality the highest (0.1 ppt) | N: number of panels, irritation of acid reduced to give a mild acid taste (0.1 ppt) | X: number of panels, acid taste reduced but piercing odor characteristic to aldehydes unpleasant (0.1 ppt) | Flavor judgment: number of panels who judged acid taste/acid smell quality the highest (0.2 ppt) | N: number of panels, irritation of acid reduced to give a mild acid taste (0.2 ppt) | X: number of panels, acid taste reduced but piercing odor characteristic to aldehydes unpleasant (0.2 ppt) | X: number of panels, acid taste reduced but piercing odor characteristic to aldehydes unpleasant (0.5 ppt) | A: number of panels, acid taste/acid smell extreme and cause irritation (1 ppb) | B: number of panels, acid taste/acid smell slightly strong and slightly cause irritation (1 ppb) | Flavor judgment: number of panels who judged acid taste/acid smell quality the highest (1 ppb) | A: number of panels, acid taste/acid smell extreme and cause irritation (1 ppt) | X: number of panels, acid taste reduced but piercing odor characteristic to aldehydes unpleasant (1 ppt) | A: number of panels, acid taste/acid smell extreme and cause irritation (5 ppt) | X: number of panels, acid taste reduced but piercing odor characteristic to aldehydes unpleasant (5 ppt) | A: number of panels, acid taste/acid smell extreme and cause irritation (10 ppb) | Flavor judgment: number of panels who judged acid taste/acid smell quality the highest (10 ppb) | A: number of panels, acid taste/acid smell extreme and cause irritation (20 ppt) | B: number of panels, acid taste/acid smell slightly strong and slightly cause irritation (20 ppt) | A: number of panels, acid taste/acid smell extreme and cause irritation (50 ppb) | B: number of panels, acid taste/acid smell slightly strong and slightly cause irritation (50 ppb) | Flavor judgment: number of panels who judged acid taste/acid smell quality the highest (50 ppb) | A: number of panels, acid taste/acid smell extreme and cause irritation (100 ppt) | Flavor judgment: number of panels who judged acid taste/acid smell quality the highest (100 ppt) | A: number of panels, acid taste/acid smell extreme and cause irritation (500 ppt) | Flavor judgment: number of panels who judged acid taste/acid smell quality the highest (500 ppt)
8: A: number of panels, acid taste/acid smell extreme and cause irritation (0.02 ppt)
1: B: number of panels, acid taste/acid smell slightly strong and slightly cause irritation (0.02 ppt) | C: number of panels, acid taste/acid smell slightly unpleasant (0.02 ppt) | A: number of panels, acid taste/acid smell extreme and cause irritation (0.5 ppt) | B: number of panels, acid taste/acid smell slightly strong and slightly cause irritation (0.5 ppt) | Flavor judgment: number of panels who judged acid taste/acid smell quality the highest (0.5 ppt) | B: number of panels, acid taste/acid smell slightly strong and slightly cause irritation (1 ppt) | B: number of panels, acid taste/acid smell slightly strong and slightly cause irritation (5 ppt) | B: number of panels, acid taste/acid smell slightly strong and slightly cause irritation (10 ppb) | X: number of panels, acid taste reduced but piercing odor characteristic to aldehydes unpleasant (20 ppt) | C: number of panels, acid taste/acid smell slightly unpleasant (50 ppb) | B: number of panels, acid taste/acid smell slightly strong and slightly cause irritation (100 ppt)
5: A: number of panels, acid taste/acid smell extreme and cause irritation (0.2 ppt) | N: number of panels, irritation of acid reduced to give a mild acid taste (0.5 ppt) | X: number of panels, acid taste reduced but piercing odor characteristic to aldehydes unpleasant (10 ppb)

Source: US20140120232A1, “ACID TASTE/ACID SMELL-REDUCING AGENT” (T. HASEGAWA CO., LTD., priority 2011, published 2014)
